Square brackets hold non-standard residues; d marks the D form. Peptide text beside a SMILES is read from it. * marks the point of attachment. NMeF = CN[CH](Cc1ccccc1)C(=O)O; NMeA = CN[CH](C)C(=O)O; tBu = CC(C)(C)*
biological target: SARS-CoV-2 MPro (Severe acute respiratory syndrome coronavirus 2, UniProt P0DTD1); experiment: MPro activity assay (de-quenching of Edans fluorescence on cleavage of a Dabcyl/Edans peptide); format: biochemical; details: 60 min pre-incubation, 5 μM substrate

SMILES	IC50
COc1ccc(C(=O)C2=C(O)C(=O)N(c3nc4ccc(Cl)cc4s3)C2c2ccc(F)cc2)cc1OC (stereo not shown) [1a]	< 25 µM

same assay, conditions: in-house acquired data, internal screening under standardized conditions (128 compounds)

SMILES	Class (MPro activity class)
CC1C(=O)NC(Cc2ccc(OC(C)(C)C)cc2)C(=O)NCC(=O)N(C)C(Cc2ccccc2)C(=O)N1C (stereo not shown) [COV19081] (cyclo(G[NMeF][NMeA]Y(tBu)); configuration not given here)	0 (compounds with IC50 > 20 μM, percentage inhibition <80% at 20 µM or 50 μM, or percentage enzyme inhibition <50% at 10 µM were labelled as INACTIVE)
O=C1NCCCCC1n1sc2ccccc2c1=O (stereo not shown) [COV19020]	1 (Compounds with IC50 < 10 µM or with a percentage of enzyme inhibition >50% at 10 µM were labelled as ACTIVE)
COc1ccc(CNC(=O)c2ccccc2I)cc1 [COV19024]	0 (compounds with IC50 > 20 μM, percentage inhibition <80% at 20 µM or 50 μM, or percentage enzyme inhibition <50% at 10 µM were labelled as INACTIVE)
COc1ccc(C2C(C(=O)c3ccc4c(c3)OCCO4)=C(O)C(=O)N2c2nc3ccc(C)cc3s2)cc1OC (stereo not shown) [ADRMC153]	0 (compounds with IC50 > 20 μM, percentage inhibition <80% at 20 µM or 50 μM, or percentage enzyme inhibition <50% at 10 µM were labelled as INACTIVE)
CNC(=S)NN=C(C)c1cc2ccccc2oc1=O [COV19137]	0 (compounds with IC50 > 20 μM, percentage inhibition <80% at 20 µM or 50 μM, or percentage enzyme inhibition <50% at 10 µM were labelled as INACTIVE)
COc1ccc(C2C(C(=O)c3ccc4c(c3)OCCO4)=C(O)C(=O)N2c2nc3ccc(Cl)cc3s2)cc1 (stereo not shown) [AD84]	0 (compounds with IC50 > 20 μM, percentage inhibition <80% at 20 µM or 50 μM, or percentage enzyme inhibition <50% at 10 µM were labelled as INACTIVE)
Cc1ccc(-n2sc3ccccc3c2=O)cc1 [COV19015]	1 (Compounds with IC50 < 10 µM or with a percentage of enzyme inhibition >50% at 10 µM were labelled as ACTIVE)
Cc1[nH]c(C(=O)NC2CCc3nc(NC(=O)CC(=O)O)sc3C2)c(Cl)c1Cl (stereo not shown) [Cpd 54]	0 (compounds with IC50 > 20 μM, percentage inhibition <80% at 20 µM or 50 μM, or percentage enzyme inhibition <50% at 10 µM were labelled as INACTIVE)
CCn1nc(C)cc1C(=O)N(Cc1ccccc1)Cc1ccccc1 [ZVR-117]	0 (compounds with IC50 > 20 μM, percentage inhibition <80% at 20 µM or 50 μM, or percentage enzyme inhibition <50% at 10 µM were labelled as INACTIVE)
O=C(NCc1ccc(C(F)(F)F)cc1)c1ccccc1I [COV19032]	0 (compounds with IC50 > 20 μM, percentage inhibition <80% at 20 µM or 50 μM, or percentage enzyme inhibition <50% at 10 µM were labelled as INACTIVE)
O=c1c2ccccc2sn1-c1ccc2ccccc2c1 [COV19013]	1 (Compounds with IC50 < 10 µM or with a percentage of enzyme inhibition >50% at 10 µM were labelled as ACTIVE)
O=C(Nc1cccc2ccccc12)c1ccccc1I [COV19033]	0 (compounds with IC50 > 20 μM, percentage inhibition <80% at 20 µM or 50 μM, or percentage enzyme inhibition <50% at 10 µM were labelled as INACTIVE)
Cc1cccc(C(=O)NCc2ccccc2)c1I [COV19040]	0 (compounds with IC50 > 20 μM, percentage inhibition <80% at 20 µM or 50 μM, or percentage enzyme inhibition <50% at 10 µM were labelled as INACTIVE)
NC1CCc2nc(NC(=O)c3cc(Cl)c(Cl)[nH]3)sc2C1 (stereo not shown) [Cpd 49]	0 (compounds with IC50 > 20 μM, percentage inhibition <80% at 20 µM or 50 μM, or percentage enzyme inhibition <50% at 10 µM were labelled as INACTIVE)
COc1ccc(C2C(C(=O)c3ccc(OC)c(OC)c3)=C(O)C(=O)N2c2nc3ccc(Cl)cc3s2)cc1 (stereo not shown) [ADKPN163]	0 (compounds with IC50 > 20 μM, percentage inhibition <80% at 20 µM or 50 μM, or percentage enzyme inhibition <50% at 10 µM were labelled as INACTIVE)
O=c1c2ccccc2sn1-c1ccc(Cl)cc1 [COV19016]	1 (Compounds with IC50 < 10 µM or with a percentage of enzyme inhibition >50% at 10 µM were labelled as ACTIVE)
Cc1cccc2c(=O)[nH]sc12 [COV19002]	0 (compounds with IC50 > 20 μM, percentage inhibition <80% at 20 µM or 50 μM, or percentage enzyme inhibition <50% at 10 µM were labelled as INACTIVE)
CCNC(=S)NN=C(C)c1c(O)c2ccccc2oc1=O [COV19142]	0 (compounds with IC50 > 20 μM, percentage inhibition <80% at 20 µM or 50 μM, or percentage enzyme inhibition <50% at 10 µM were labelled as INACTIVE)
O=C(C1=C(O)C(=O)N(c2nc3ccc(Cl)cc3s2)C1c1ccc(F)cc1)c1ccc2c(c1)OCCO2 (stereo not shown) [ADRMC150]	0 (compounds with IC50 > 20 μM, percentage inhibition <80% at 20 µM or 50 μM, or percentage enzyme inhibition <50% at 10 µM were labelled as INACTIVE)

SMILES	Class (MPro activity class)
Cc1ccc2nc(N3C(=O)C(O)=C(C(=O)c4ccc5c(c4)OCCO5)C3c3ccc(F)cc3)sc2c1 (stereo not shown) [ADRMC154]	0 (compounds with IC50 > 20 μM, percentage inhibition <80% at 20 µM or 50 μM, or percentage enzyme inhibition <50% at 10 µM were labelled as INACTIVE)
Nc1cccc(C(=O)Nc2nc3c(s2)CC(NC(=O)c2cc(Br)c(Br)[nH]2)CC3)c1 (stereo not shown) [Cpd 46]	0 (compounds with IC50 > 20 μM, percentage inhibition <80% at 20 µM or 50 μM, or percentage enzyme inhibition <50% at 10 µM were labelled as INACTIVE)
C(=Cc1ccco1)C=Nn1cnnc1 [COV19287]	0 (compounds with IC50 > 20 μM, percentage inhibition <80% at 20 µM or 50 μM, or percentage enzyme inhibition <50% at 10 µM were labelled as INACTIVE)
O=c1c2ccccc2sn1-c1ccccc1 [COV19010]	1 (Compounds with IC50 < 10 µM or with a percentage of enzyme inhibition >50% at 10 µM were labelled as ACTIVE)
CC1C(=O)NC(Cc2ccccc2)C(=O)N(C)C(Cc2ccccc2)C(=O)NCC(=O)N1C (stereo not shown) [COV19080] (cyclo(G[NMeA]F[NMeF]); configuration not given here)	0 (compounds with IC50 > 20 μM, percentage inhibition <80% at 20 µM or 50 μM, or percentage enzyme inhibition <50% at 10 µM were labelled as INACTIVE)
Nc1ncc(C(=O)N(Cc2ccccc2)Cc2ccccc2)o1 [ZVR-102]	0 (compounds with IC50 > 20 μM, percentage inhibition <80% at 20 µM or 50 μM, or percentage enzyme inhibition <50% at 10 µM were labelled as INACTIVE)
CC(=NNC(N)=S)c1c(O)c2ccccc2oc1=O [COV19140]	0 (compounds with IC50 > 20 μM, percentage inhibition <80% at 20 µM or 50 μM, or percentage enzyme inhibition <50% at 10 µM were labelled as INACTIVE)
CC(=NNC(N)=S)c1cc2ccccc2oc1=O [COV19136]	0 (compounds with IC50 > 20 μM, percentage inhibition <80% at 20 µM or 50 μM, or percentage enzyme inhibition <50% at 10 µM were labelled as INACTIVE)
Nc1ncc2cc(-c3ccc4c(c3)OCO4)c(N)nc2n1 [ZVR108]	0 (compounds with IC50 > 20 μM, percentage inhibition <80% at 20 µM or 50 μM, or percentage enzyme inhibition <50% at 10 µM were labelled as INACTIVE)
O=C(Nc1ccc([N+](=O)[O-])cc1)c1ccccc1I [COV19030]	0 (compounds with IC50 > 20 μM, percentage inhibition <80% at 20 µM or 50 μM, or percentage enzyme inhibition <50% at 10 µM were labelled as INACTIVE)
O=C(C1=C(O)C(=O)N(c2nc3ccc(Cl)cc3s2)C1c1ccc(O)cc1)c1ccc2c(c1)OCCO2 (stereo not shown) [AD83]	0 (compounds with IC50 > 20 μM, percentage inhibition <80% at 20 µM or 50 μM, or percentage enzyme inhibition <50% at 10 µM were labelled as INACTIVE)
Cc1cccc2c(=O)n(Cc3ccccc3)sc12 [COV19007]	0 (compounds with IC50 > 20 μM, percentage inhibition <80% at 20 µM or 50 μM, or percentage enzyme inhibition <50% at 10 µM were labelled as INACTIVE)
Cc1ccc2nc(N3C(=O)C(O)=C(C(=O)c4ccc5c(c4)OCCO5)C3c3ccccc3)sc2c1 (stereo not shown) [ADRMC151]	0 (compounds with IC50 > 20 μM, percentage inhibition <80% at 20 µM or 50 μM, or percentage enzyme inhibition <50% at 10 µM were labelled as INACTIVE)
O=c1c2ccccc2sn1Cc1ccc(F)cc1 [COV19003]	1 (Compounds with IC50 < 10 µM or with a percentage of enzyme inhibition >50% at 10 µM were labelled as ACTIVE)
O=S(=O)(C=Cc1ccc2no[n+]([O-])c2c1)c1ccccc1 [COV19497]	1 (Compounds with IC50 < 10 µM or with a percentage of enzyme inhibition >50% at 10 µM were labelled as ACTIVE)
NC(=O)c1ccccc1I [COV19035]	0 (compounds with IC50 > 20 μM, percentage inhibition <80% at 20 µM or 50 μM, or percentage enzyme inhibition <50% at 10 µM were labelled as INACTIVE)
O=C(Cn1ccnc1-n1sc2ccccc2c1=O)NCc1ccccc1 [COV19023]	0 (compounds with IC50 > 20 μM, percentage inhibition <80% at 20 µM or 50 μM, or percentage enzyme inhibition <50% at 10 µM were labelled as INACTIVE)
Nc1nc2nc(NCCCN3CCOCC3)ncc2cc1-c1c(Cl)cccc1Cl [ZVR130]	0 (compounds with IC50 > 20 μM, percentage inhibition <80% at 20 µM or 50 μM, or percentage enzyme inhibition <50% at 10 µM were labelled as INACTIVE)

same assay, conditions: read-out: MPro activity (%)

SMILES	activity at 25 µM
Cc1ccc(S(=O)(=O)/C=C/c2ccc3no[n+]([O-])c3c2)cc1 [20d]	62.6 ± 4.9%
O=C(OC[C@H]1O[C@@H](OC(=O)c2ccccc2)[C@H](OC(=O)c2ccccc2)[C@@H](OC(=O)c2ccccc2)[C@@H]1OC(=O)c1ccccc1)c1ccccc1 [8a]	67 ± 2.5%
CC(=O)OC[C@H]1O[C@@H](Sc2ccccc2)[C@H](OC(C)=O)[C@@H](OC(C)=O)C1OC(C)=O (stereo partly shown) [6a]	60.9 ± 1.5%
Cc1ccc([S+]([O-])/C=C/c2ccc3no[n+]([O-])c3c2)cc1 (stereo not shown) [11d]	70.6 ± 0.8%
O=[N+]([O-])c1ccc(CS(=O)(=O)/C=C/c2ccc3nonc3c2)cc1 [17d]	116 ± 15%
Cc1ccc(S(=O)(=O)/C=C\c2ccc3no[n+]([O-])c3c2)cc1 [19d]	98.6 ± 2.4%
Cc1c(C(=O)NCc2ccccc2)[n+]([O-])c2ccccc2[n+]1[O-] [4a]	59.4 ± 3.6%
COc1ccc(C(=O)C2=C(O)C(=O)N(c3nc4ccc(Cl)cc4s3)C2c2ccc(F)cc2)cc1OC (stereo not shown) [1a]	34.8 ± 3.4%

same assay, conditions: read-out: MPro inhibition

SMILES	inhibition at 25 µM
O=S(=O)(Nc1nc2cc(Cl)c(Oc3cccc(Cl)c3Cl)cc2[nH]1)c1ccc(Br)cc1 [32d]	25%
O=C(/C=C/c1ccc2ccccc2c1)c1ccc2ccccc2c1O [26d]	45%
O=C1/C(=C/C=C/c2cccs2)CC/C1=C\C=C\c1cccs1 [37d]	20 to 40%

From article PMC10323144, “Garbage in, garbage out: how reliable training data improved a virtual screening approach against SARS-CoV-2 MPro” (Frontiers in Pharmacology, 2023)
